Measurements taken from patent US8951964B2, “Phenanthridine macrocyclic hepatitis C serine protease inhibitors” (priority 2010, dated 2015).

These compounds were tested on genotype 1b replicon (1b-Con1, 1b-N) (assay: 1b stable replicon (luciferase reporter)). Conditions: Hepatitis C virus, HuH-7 cells, 5% FBS.
Assay type: cell-based, HCV
Compound `Cn1ccc(C(=O)N[C@H]2CCCCC/C=C\[C@@H]3C[C@@]3(C(=O)NS(=O)(=O)C3CC3)NC(=O)[C@@H]3C[C@@H](Oc4nc5cc(F)ccc5c5ccccc45)CN3C2=O)n1` has an EC50 of less than 100 pM. `Cn1ccc(C(=O)N[C@H]2CCCCC/C=C\[C@@H]3C[C@@]3(C(=O)NS(=O)(=O)C3CC3)NC(=O)[C@@H]3C[C@@H](Oc4nc5cccc(F)c5c5ccccc45)CN3C2=O)n1` was tested, and the EC50 was less than 100 pM. `Cn1ccc(C(=O)N[C@H]2CCCCC/C=C\[C@@H]3C[C@@]3(C(=O)NS(=O)(=O)C3CC3)NC(=O)[C@@H]3C[C@@H](Oc4nc5cc(OC(F)(F)F)ccc5c5ccccc45)CN3C2=O)n1` was tested, and the EC50 was less than 100 pM. Work on `Cn1ccc(C(=O)N[C@H]2CCCCC/C=C\[C@@H]3C[C@@]3(C(=O)NS(=O)(=O)C3(C)CC3)NC(=O)[C@@H]3C[C@@H](Oc4nc5ccccc5c5cccc(F)c45)CN3C2=O)n1` yielded an EC50 of 100 to 500 pM.

These compounds were tested on genotype 3a NS3 gene in transient replicon (assay: 3a transient replicon (luciferase reporter)). Conditions: Hepatitis C virus, Huh-7, read-out: 3a transient replicon (nM).
Assay type: cell-based, HCV
`CC1(S(=O)(=O)NC(=O)[C@@]23C[C@H]2/C=C\CCCCC[C@H](NC(=O)c2ccon2)C(=O)N2C[C@H](Oc4nc5cc(F)ccc5c5cc(OC(F)(F)F)ccc45)C[C@H]2C(=O)N3)CC1` was tested, and the EC50 was greater than 1 nM. In the case of `Cc1ccc(C(=O)N[C@H]2CCCCC/C=C\[C@@H]3C[C@@]3(C(=O)NS(=O)(=O)C3(C)CC3)NC(=O)[C@@H]3C[C@@H](Oc4nc5cc(OC(F)(F)F)ccc5c5ccc(F)cc45)CN3C2=O)s1`, the EC50 is reported as greater than 1 nM. `CC1(S(=O)(=O)NC(=O)[C@@]23C[C@H]2/C=C\CCCCC[C@H](NC(=O)c2ccon2)C(=O)N2C[C@H](Oc4nc5ccccc5c5cc(F)ccc45)C[C@H]2C(=O)N3)CC1` was tested, and the EC50 was 0.5 to 1 nM. In the case of `CC1(S(=O)(=O)NC(=O)[C@@]23C[C@H]2/C=C\CCCCC[C@H](NC(=O)[C@H](O)C(F)(F)F)C(=O)N2C[C@H](Oc4nc5cc(OC(F)(F)F)ccc5c5ccc(F)cc45)C[C@H]2C(=O)N3)CC1`, the EC50 is reported as greater than 1 nM. `Cn1ccc(C(=O)N[C@H]2CCCCC/C=C\[C@@H]3C[C@@]3(C(=O)NS(=O)(=O)C3(C)CC3)NC(=O)[C@@H]3C[C@@H](Oc4nc5cc(OC(F)(F)F)ccc5c5ccc(F)cc45)CN3C2=O)n1` gave an EC50 of 0.1 to 0.5 nM.

Each compound was assayed on genotype 1b transient replicon (assay: 1b transient replicon (luciferase reporter)). Conditions: Hepatitis C virus, HuH-7 cells, 5% FBS.
Assay type: cell-based, HCV
With `Cn1ccc(C(=O)N[C@H]2CCCCC/C=C\[C@@H]3C[C@@]3(C(=O)NS(=O)(=O)C3CC3)NC(=O)[C@@H]3C[C@@H](Oc4nc5cc(F)ccc5c5ccccc45)CN3C2=O)n1` the EC50 was 100 to 500 pM. Work on `Cn1ccc(C(=O)N[C@H]2CCCCC/C=C\[C@@H]3C[C@@]3(C(=O)NS(=O)(=O)C3CC3)NC(=O)[C@@H]3C[C@@H](Oc4nc5cccc(F)c5c5ccccc45)CN3C2=O)n1` yielded an EC50 of 100 to 500 pM. `Cn1ccc(C(=O)N[C@H]2CCCCC/C=C\[C@@H]3C[C@@]3(C(=O)NS(=O)(=O)C3CC3)NC(=O)[C@@H]3C[C@@H](Oc4nc5cc(OC(F)(F)F)ccc5c5ccccc45)CN3C2=O)n1` showed an EC50 of 100 to 500 pM. In the case of `CC1(S(=O)(=O)NC(=O)[C@@]23C[C@H]2/C=C\CCCCC[C@H](NC(=O)c2ccon2)C(=O)N2C[C@H](Oc4nc5cc(F)ccc5c5cc(OC(F)(F)F)ccc45)C[C@H]2C(=O)N3)CC1`, the EC50 is reported as 100 to 500 pM. For `Cc1ccc(C(=O)N[C@H]2CCCCC/C=C\[C@@H]3C[C@@]3(C(=O)NS(=O)(=O)C3(C)CC3)NC(=O)[C@@H]3C[C@@H](Oc4nc5cc(OC(F)(F)F)ccc5c5ccc(F)cc45)CN3C2=O)s1`, the EC50 was 100 to 500 pM. Compound `CC1(S(=O)(=O)NC(=O)[C@@]23C[C@H]2/C=C\CCCCC[C@H](NC(=O)c2ccon2)C(=O)N2C[C@H](Oc4nc5ccccc5c5cc(F)ccc45)C[C@H]2C(=O)N3)CC1` has an EC50 of 100 to 500 pM. With `Cn1ccc(C(=O)N[C@H]2CCCCC/C=C\[C@@H]3C[C@@]3(C(=O)NS(=O)(=O)C3(C)CC3)NC(=O)[C@@H]3C[C@@H](Oc4nc5ccccc5c5cccc(F)c45)CN3C2=O)n1` the EC50 was 100 to 500 pM. `CC1(S(=O)(=O)NC(=O)[C@@]23C[C@H]2/C=C\CCCCC[C@H](NC(=O)[C@H](O)C(F)(F)F)C(=O)N2C[C@H](Oc4nc5cc(OC(F)(F)F)ccc5c5ccc(F)cc45)C[C@H]2C(=O)N3)CC1` gave an EC50 of less than 100 pM. Compound `Cn1ccc(C(=O)N[C@H]2CCCCC/C=C\[C@@H]3C[C@@]3(C(=O)NS(=O)(=O)C3(C)CC3)NC(=O)[C@@H]3C[C@@H](Oc4nc5cc(OC(F)(F)F)ccc5c5ccc(F)cc45)CN3C2=O)n1` has an EC50 of less than 100 pM.

Each compound was assayed on genotype 1a transient replicon (1a-H77) (assay: 1a transient replicon (luciferase reporter)). Conditions: Hepatitis C virus, HuH-7 cells, 5% FBS.
Assay type: cell-based, HCV
For `Cn1ccc(C(=O)N[C@H]2CCCCC/C=C\[C@@H]3C[C@@]3(C(=O)NS(=O)(=O)C3CC3)NC(=O)[C@@H]3C[C@@H](Oc4nc5cc(F)ccc5c5ccccc45)CN3C2=O)n1`, the EC50 was 100 to 500 pM. `Cn1ccc(C(=O)N[C@H]2CCCCC/C=C\[C@@H]3C[C@@]3(C(=O)NS(=O)(=O)C3CC3)NC(=O)[C@@H]3C[C@@H](Oc4nc5cccc(F)c5c5ccccc45)CN3C2=O)n1` was tested, and the EC50 was 500 to 1000 pM. `Cn1ccc(C(=O)N[C@H]2CCCCC/C=C\[C@@H]3C[C@@]3(C(=O)NS(=O)(=O)C3CC3)NC(=O)[C@@H]3C[C@@H](Oc4nc5cc(OC(F)(F)F)ccc5c5ccccc45)CN3C2=O)n1` gave an EC50 of less than 100 pM. Compound `CC1(S(=O)(=O)NC(=O)[C@@]23C[C@H]2/C=C\CCCCC[C@H](NC(=O)c2ccon2)C(=O)N2C[C@H](Oc4nc5cc(F)ccc5c5cc(OC(F)(F)F)ccc45)C[C@H]2C(=O)N3)CC1` has an EC50 of less than 100 pM. `Cc1ccc(C(=O)N[C@H]2CCCCC/C=C\[C@@H]3C[C@@]3(C(=O)NS(=O)(=O)C3(C)CC3)NC(=O)[C@@H]3C[C@@H](Oc4nc5cc(OC(F)(F)F)ccc5c5ccc(F)cc45)CN3C2=O)s1` gave an EC50 of 100 to 500 pM. `CC1(S(=O)(=O)NC(=O)[C@@]23C[C@H]2/C=C\CCCCC[C@H](NC(=O)c2ccon2)C(=O)N2C[C@H](Oc4nc5ccccc5c5cc(F)ccc45)C[C@H]2C(=O)N3)CC1` gave an EC50 of less than 100 pM. `Cn1ccc(C(=O)N[C@H]2CCCCC/C=C\[C@@H]3C[C@@]3(C(=O)NS(=O)(=O)C3(C)CC3)NC(=O)[C@@H]3C[C@@H](Oc4nc5ccccc5c5cccc(F)c45)CN3C2=O)n1` gave an EC50 of 100 to 500 pM. In the case of `CC1(S(=O)(=O)NC(=O)[C@@]23C[C@H]2/C=C\CCCCC[C@H](NC(=O)[C@H](O)C(F)(F)F)C(=O)N2C[C@H](Oc4nc5cc(OC(F)(F)F)ccc5c5ccc(F)cc45)C[C@H]2C(=O)N3)CC1`, the EC50 is reported as less than 100 pM. With `Cn1ccc(C(=O)N[C@H]2CCCCC/C=C\[C@@H]3C[C@@]3(C(=O)NS(=O)(=O)C3(C)CC3)NC(=O)[C@@H]3C[C@@H](Oc4nc5cc(OC(F)(F)F)ccc5c5ccc(F)cc45)CN3C2=O)n1` the EC50 was less than 100 pM.

Each compound was assayed on genotype 1a replicon (1a-H77) (assay: 1a stable replicon (luciferase reporter)). Conditions: Hepatitis C virus, Huh-7, luciferase reporter, HuH-7 cells, 5% FBS.
Assay type: cell-based, HCV
`Cn1ccc(C(=O)N[C@H]2CCCCC/C=C\[C@@H]3C[C@@]3(C(=O)NS(=O)(=O)C3CC3)NC(=O)[C@@H]3C[C@@H](Oc4nc5cc(F)ccc5c5ccccc45)CN3C2=O)n1` gave an EC50 of 100 to 500 pM. For `Cn1ccc(C(=O)N[C@H]2CCCCC/C=C\[C@@H]3C[C@@]3(C(=O)NS(=O)(=O)C3CC3)NC(=O)[C@@H]3C[C@@H](Oc4nc5cccc(F)c5c5ccccc45)CN3C2=O)n1`, the EC50 was 500 to 1000 pM. `Cn1ccc(C(=O)N[C@H]2CCCCC/C=C\[C@@H]3C[C@@]3(C(=O)NS(=O)(=O)C3CC3)NC(=O)[C@@H]3C[C@@H](Oc4nc5cc(OC(F)(F)F)ccc5c5ccccc45)CN3C2=O)n1` showed an EC50 of less than 100 pM. `Cn1ccc(C(=O)N[C@H]2CCCCC/C=C\[C@@H]3C[C@@]3(C(=O)NS(=O)(=O)C3(C)CC3)NC(=O)[C@@H]3C[C@@H](Oc4nc5ccccc5c5cccc(F)c45)CN3C2=O)n1` was tested, and the EC50 was less than 100 pM.
